Source: patent US20260248087A1, “GENERATING DOUBLED HAPLOID PLANTS” (Syngenta Crop Protection AG, priority 2023, published 2026)

Key:
isolated embryos [1] = assay: Potted rate, transplant rate and seedling height, thiamethoxam co-treatment during colchicine doubling; type: in vivo, maize
Source text: (§1) As used herein, the term “potted rate” or “potting rate” refers to the percent of germinated embryos successfully transferred to soil from total treated haploid embryos. The “potted rate” is used as an indication of plant health in monitoring the success of recovery and growth after treatment of haploids. As used herein, the term “transplant rate” refers to the survival of healthy plants after embryos were germinated and transferred to soil.
In addition to testing of safeners such as metcamifen, testing the effects of other compounds, such as thiamethoxam (TMX), were completed. Isolated embryos were co-treated with TMX during colchicine doubling in the doubling media. The co-treatments were allowed to incubate for 24 or 48 hours. Four genotypes representing two heterotic groups were tested with replication. The effect on potting rate from in vitro culture was evaluated.
Initial testing measured the effect of TMX at concentrations of 0, 150, or 750 mg/L for 24 or 48 hours. […] The strongest effect of TMX co-treatment seen with the 48-hour duration was at 750 mg/L TMX compared to the control.
Further testing was done and TMX was applied to isolated embryos at levels of 0, 750, 1500, 2000 mg/L during colchicine co-treatment. The co-treatments were incubated for 24 or 48 hours.
TMX was applied to isolated embryos at levels of 0, 2000, 4000, 8000 mg/L during colchicine co-treatment. The co-treatments were incubated for durations of 24 or 48 hours.
TMX was applied to isolated embryos at levels of 0, 2000, 4000, or 6000 mg/L during colchicine co-treatment. The co-treatments were incubated for durations of 24 or 48 hours. […] The highest percent transplanted rates were 86% and 83% for co-treatments 4000 mg/L at 24 hours and 6000 mg/L at 48 hours, respectively (see Table 8).

isolated embryos [2] = assay: Potting and transplant rate, thiamethoxam liquid media pre-treatment prior to colchicine doubling; type: in vivo, maize
Source text: as §1
TMX pre-treatment application to isolated embryos prior to colchicine doubling was done in 2 genotypes with replication. Isolated embryos were plated on filter paper and pre-treated with a formulation of TMX at concentrations ranging from 10-1000 mg/L in liquid media. The pre-treatments incubated for 0.5 to 24 hours. Following the pre-treatment, embryos were treated with colchicine for chromosome doubling and plant regeneration. The effect on potting rate and transplant rate were evaluated (see Table 10).
In a follow-up experiment, the liquid pre-treatment was tested at 30 minute and 1-hour durations to determine if a shorter duration would result in better potting and transplant rates than observed in the 1 hour treatments shown in Table 10. These were performed in the same manner as described above, in triplicate.

GST27 = GST27 induction, metcamifen co-treatment of isolated embryos during colchicine doubling; type: cell-based, maize; details: for GST27 Induction Mean: co-treatment with colchicine
Protocol: For the examples below, GST27 was used as a quick indicator for treatment effectiveness.
(§2) Isolated embryos were treated with metcamifen during colchicine doubling (also referred to as co-treatment). Metcamifen was added in the colchicine co-treatment media (a.k.a. doubling media) as a formulation at concentrations of 0, 200, 400, 800, 1200 mg/L. Metcamifen concentrations tested for a 24-hour duration ranged from 0-1000 mg/L. Metcamifen concentrations tested for a 48-hour condition ranged from 0-1200 mg/L. Three to four genotypes representing two heterotic groups were tested.
(§3) Initial testing on three genotypes included co-treatment of metcamifen and colchicine in Gelzan media at 28° C. with 150 PAR light at concentrations of 0, 200, and 1000 mg/L to identify a range of working concentrations. The 200 and 1000 mg/L concentrations induced similar GST27 expression levels for both the 24- and 48-hour durations. The resulting induction was higher (400 ng/mg TSP GST27) than recorded with pre-treatments of ears or isolated embryos. […] Metcamifen co-treatment of isolated embryos optimization continued by testing levels of 0, 400, 600, and 800 mg/L for 24 and 48 hours with 4 genotypes across 2 heterotic groups. GST induction (ng/mg TSP) was measured after metcamifen co-treatment. […] The percent potted rate after metcamifen co-treatment was similar for both time durations when sorted by genotype or heterotic group.

isolated embryos [3] = assay: Potted rate after metcamifen co-treatment during colchicine doubling; type: in vivo, maize; details: for Potted Rate Mean: co-treatment with colchicine
Protocol: as §1, §2, §3

[4] = Table 6: co-treatment with colchicine, TMX 750 mg/L, 24 hours
[5] = Table 6: co-treatment with colchicine, TMX 750 mg/L, 48 hours
[6] = Table 6: co-treatment with colchicine, TMX 1500 mg/L, 24 hours
[7] = Table 6: co-treatment with colchicine, TMX 1500 mg/L, 48 hours
[8] = Table 6: co-treatment with colchicine, TMX 2000 mg/L, 24 hours
[9] = Table 6: co-treatment with colchicine, TMX 2000 mg/L, 48 hours
[10] = Table 7: co-treatment with colchicine, TMX 2000 mg/L, 24 hours
[11] = Table 7: co-treatment with colchicine, TMX 2000 mg/L, 48 hours
[12] = Table 7: co-treatment with colchicine, TMX 4000 mg/L, 24 hours
[13] = Table 7: co-treatment with colchicine, TMX 4000 mg/L, 48 hours
[14] = Table 7: co-treatment with colchicine, TMX 8000 mg/L, 24 hours
[15] = Table 7: co-treatment with colchicine, TMX 8000 mg/L, 48 hours
[16] = Table 8: co-treatment with colchicine, TMX 2000 mg/L, 24 hours
[17] = Table 8: co-treatment with colchicine, TMX 2000 mg/L, 48 hours
[18] = Table 8: co-treatment with colchicine, TMX 4000 mg/L, 24 hours
[19] = Table 8: co-treatment with colchicine, TMX 4000 mg/L, 48 hours
[20] = Table 8: co-treatment with colchicine, TMX 6000 mg/L, 24 hours
[21] = Table 8: co-treatment with colchicine, TMX 6000 mg/L, 48 hours
[22] = Table 10: liquid media pre-treatment, TMX 10 mg/L, 1 hr
[23] = Table 10: liquid media pre-treatment, TMX 10 mg/L, 24 hr
[24] = Table 10: liquid media pre-treatment, TMX 100 mg/L, 1 hr
[25] = Table 10: liquid media pre-treatment, TMX 100 mg/L, 24 hr
[26] = Table 10: liquid media pre-treatment, TMX 1000 mg/L, 1 hr
[27] = Table 10: liquid media pre-treatment, TMX 1000 mg/L, 24 hr
[28] = Table 11: liquid pre-treatment, TMX 100 mg/L, 30 min
[29] = Table 11: liquid pre-treatment, TMX 100 mg/L, 1 hr
[30] = Table 11: liquid pre-treatment, TMX 1000 mg/L, 30 min
[31] = Table 11: liquid pre-treatment, TMX 1000 mg/L, 1 hr
[32] = initial testing, 200 and 1000 mg/L, 24-hour co-treatment

CN1COCN(Cc2cnc(Cl)s2)/C1=N\[N+](=O)[O-] [TMX, thiamethoxam]
Potted Rate Mean (isolated embryos [1]; [4]): 52%
Transplant Rate Mean (isolated embryos [1]; [4]): 33%
Potted Rate Mean (isolated embryos [1]; [5]): 12%
Transplant Rate Mean (isolated embryos [1]; [5]): 9%
Potted Rate Mean (isolated embryos [1]; [6]): 65%
Transplant Rate Mean (isolated embryos [1]; [6]): 41%
Potted Rate Mean (isolated embryos [1]; [7]): 18%
Transplant Rate Mean (isolated embryos [1]; [7]): 12%
Potted Rate Mean (isolated embryos [1]; [8]): 74%
Transplant Rate Mean (isolated embryos [1]; [8]): 50%
Potted Rate Mean (isolated embryos [1]; [9]): 32%
Transplant Rate Mean (isolated embryos [1]; [9]): 21%
Potted Rate Mean (isolated embryos [1]; [10]): 76%
Transplant Rate Mean (isolated embryos [1]; [10]): 73%
Potted Rate Mean (isolated embryos [1]; [11]): 22%
Transplant Rate Mean (isolated embryos [1]; [11]): 15%
Potted Rate Mean (isolated embryos [1]; [12]): 82%
Transplant Rate Mean (isolated embryos [1]; [12]): 79%
Potted Rate Mean (isolated embryos [1]; [13]): 67%
Transplant Rate Mean (isolated embryos [1]; [13]): 61%
Potted Rate Mean (isolated embryos [1]; [14]): 47%
Transplant Rate Mean (isolated embryos [1]; [14]): 45%
Potted Rate Mean (isolated embryos [1]; [15]): 20%
Transplant Rate Mean (isolated embryos [1]; [15]): 16%
Potted Rate Mean (isolated embryos [1]; [16]): 68%
Transplant Rate Mean (isolated embryos [1]; [16]): 62%
Potted Rate Mean (isolated embryos [1]; [17]): 27%
Transplant Rate Mean (isolated embryos [1]; [17]): 26%
Potted Rate Mean (isolated embryos [1]; [18]): 90%
Transplant Rate Mean (isolated embryos [1]; [18]): 86%
Potted Rate Mean (isolated embryos [1]; [19]): 63%
Transplant Rate Mean (isolated embryos [1]; [19]): 56%
Potted Rate Mean (isolated embryos [1]; [20]): 86%
Transplant Rate Mean (isolated embryos [1]; [20]): 74%
Potted Rate Mean (isolated embryos [1]; [21]): 89%
Transplant Rate Mean (isolated embryos [1]; [21]): 83%
Seedling height (overall plant height) (isolated embryos [1]; initial testing, TMX 150 or 750 mg/L, 24-hour and 48-hour): taller
potting rate (isolated embryos [1]; initial testing, TMX 150 or 750 mg/L, 24-hour co-treatment): ≥ 80%
Potting Rate Mean (isolated embryos [2]; [22]): 55%
Transplant Rate Mean (isolated embryos [2]; [22]): 51%
Potting Rate Mean (isolated embryos [2]; [23]): 7%
Transplant Rate Mean (isolated embryos [2]; [23]): 7%
Potting Rate Mean (isolated embryos [2]; [24]): 38%
Transplant Rate Mean (isolated embryos [2]; [24]): 37%
Potting Rate Mean (isolated embryos [2]; [25]): 15%
Transplant Rate Mean (isolated embryos [2]; [25]): 15%
Potting Rate Mean (isolated embryos [2]; [26]): 58%
Transplant Rate Mean (isolated embryos [2]; [26]): 55%
Potting Rate Mean (isolated embryos [2]; [27]): 11%
Transplant Rate Mean (isolated embryos [2]; [27]): 11%
Potting Rate Mean (isolated embryos [2]; [28]): 68%
Transplant Rate Mean (isolated embryos [2]; [28]): 54%
Potting Rate Mean (isolated embryos [2]; [29]): 77%
Transplant Rate Mean (isolated embryos [2]; [29]): 66%
Potting Rate Mean (isolated embryos [2]; [30]): 51%
Transplant Rate Mean (isolated embryos [2]; [30]): 42%
Potting Rate Mean (isolated embryos [2]; [31]): 74%
Transplant Rate Mean (isolated embryos [2]; [31]): 56%

CNC(=O)Nc1ccc(S(=O)(=O)NC(=O)c2ccccc2OC)cc1 [Metcamifen, metcamifen]
GST27 induction among 0, 400, 600, 800 mg/L (GST27; 800 mg/L, 48-hour co-treatment, 4 genotypes): highest induction
GST27 Induction Mean (GST27; 200 mg/L, 24 hours): 383.25 ng/mg TSP
GST27 Induction Mean (GST27; 400 mg/L, 24 hours): 396.13 ng/mg TSP
GST27 Induction Mean (GST27; 400 mg/L, 48 hours): 609.50 ng/mg TSP
GST27 Induction Mean (GST27; 800 mg/L, 24 hours): 489.38 ng/mg TSP
GST27 Induction Mean (GST27; 800 mg/L, 48 hours): 666.50 ng/mg TSP
GST27 Induction Mean (GST27; 1200 mg/L, 48 hours): 796.63 ng/mg TSP
GST27 induction (GST27; initial testing, 200 and 1000 mg/L, 24- and 48-hour, Gelzan media, 28° C., three genotypes): 400 ng/mg TSP
Potted Rate Mean (isolated embryos [3]; 200 mg/L, 24 hours): 84%
Potted Rate Mean (isolated embryos [3]; 400 mg/L, 24 hours): 84%
Potted Rate Mean (isolated embryos [3]; 400 mg/L, 48 hours): 14%
Potted Rate Mean (isolated embryos [3]; 800 mg/L, 24 hours): 92%
Potted Rate Mean (isolated embryos [3]; 800 mg/L, 48 hours): 73%
Potted Rate Mean (isolated embryos [3]; 1200 mg/L, 48 hours): 71%
percent potted rate versus 1000 mg/L and control (isolated embryos [3]; initial testing, 200 mg/L, 48-hour co-treatment): increased the percent potted rate
doubled haploid ears produced versus the control (isolated embryos [3]; [32]): increase in the doubled haploid ears produced
percent potted rate versus the control (isolated embryos [3]; [32]): increased the percent potted rate
